Source: patent publication US11339153B2, “Compounds useful in modulating the farnesoid X receptor and methods of making and using the same” (Inorbit Therapeutics AB, priority 2018, dated 2022)

Assays:
[1] = target: T1, Human FXR receptor (NR1H4) (Homo sapiens, UniProt Q96RI1); experiment: Human Farnesoid X Receptor (NR1H4, FXR) Reporter Assay (Indigo Bioscience kit, luciferase); format: cell-based; conditions: for EC50: Human FXR (NR1H4) reporter assay, 22-24 h incubation; for Efficacy (%): normalized to GW4064 set as 100%
T1 sequence (Q96RI1 1-486): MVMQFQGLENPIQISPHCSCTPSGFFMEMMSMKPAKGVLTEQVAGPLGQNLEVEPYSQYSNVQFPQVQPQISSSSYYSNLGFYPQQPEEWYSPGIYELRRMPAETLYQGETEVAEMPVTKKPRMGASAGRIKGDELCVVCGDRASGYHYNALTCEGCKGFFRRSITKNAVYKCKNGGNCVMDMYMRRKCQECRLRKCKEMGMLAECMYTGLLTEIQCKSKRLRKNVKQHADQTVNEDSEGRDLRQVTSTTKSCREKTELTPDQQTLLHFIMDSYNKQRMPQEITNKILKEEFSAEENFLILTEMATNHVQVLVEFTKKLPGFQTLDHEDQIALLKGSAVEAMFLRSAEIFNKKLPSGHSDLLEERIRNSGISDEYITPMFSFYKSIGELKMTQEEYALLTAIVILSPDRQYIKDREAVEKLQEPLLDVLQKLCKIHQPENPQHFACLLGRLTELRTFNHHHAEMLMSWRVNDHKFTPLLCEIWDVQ
Text: Human Farnesoid X Receptor (NR1H4, FXR) Reporter Assay
Determination of a ligand mediated Ga14 promoter driven transactivation to quantify ligand binding mediated activation of FXR. A FXR Reporter Assay kit was purchased from Indigo Bioscience (#IB00601-32) to determine the potency and efficacy of compounds that can induce FXR activation. The nuclear receptor assay system utilizes non-human mammalian cells engineered to provide constitutive high level expression of Human FXR receptor (NR1H4), a ligand-dependent transcription factor. The reporter cells include luciferase reporter gene functionality linked to an FXR-response promoter. Quantifying changes in luciferase expression in the treated reporter cells provides a sensitive surrogate measure of the changes in FXR activity.
The reporter cells incorporate the cDNA encoding beetle luciferase, a protein that catalyses the mono-oxidation of D-luciferin in a Mg^2+ dependent reaction that consumes O2 and ATP as co-substrates, yielding the products Oxylucifern, AMP, PPi, CO2 and photon (light) emission. Luminescence intensity of the reaction is quantified using a luminometer, and is reported in terms of Relative Light Units (RLU's).
The assay was performed according to the manufacturer's instructions. In brief, the test compounds were weighed and dissolved in phosphate buffer solution as a 10 mM stock and diluted to the appropriate concentration using Compound Screening Medium (CSM). The frozen reporter cells were thawed and suspended in Cell Recovery Medium at 37° C. The compounds were then immediately added to the cell plate and the plate was placed into a 37° C., humidified CO2 incubator for 22-24 h. After incubation, the media was carefully removed, Luciferase detection solution was added and the plate read in a Luminometer. The data was calculated as per kit instructions, with increases in luminescence being directly proportional to increases in compound agonist activity.

[2] = Metabolism in human microsomes; format: in vitro ADME; conditions: 37° C.; for % remaining @ 45 mins of incubation with UDPGA: co-factor UDPGA only; for % remaining @ 45 mins of incubation with UDPGA and NADPH: co-factors UDPGA and NADPH
Experimental: Metabolism in Human Microsomes
Microsomal mixes (247.5 μL) of human microsomes (1250 μL, 4 mg/ml), potassium phosphate buffer (1250 μL), alamethecin (12.5 μL, 5 mg/ml) and cofactors Nicotinamide Adenine Dinucleotide Phosphate NADPH (1250 μL, 4 mM)/uridine 5′-diphospho-glucuronic acid UDPGA (1250 μL, 4 mM) or UDPGA only were loaded onto a shaker for 10 minutes. The test compound (2.5 μL, 100 μM) was then separately added to both microsomal mixes (i.e., one mix with NADPH and one mix without NADPH), incubated at 37° C. and sampled at predetermined time points. Analysis was performed using a AB SCIEX QTRAP 4500 LC-MS/MS, a Kinetex C18, 50*4.6 mm, 5 μm column and eluting with 10 mM Ammonium Acetate/Methanol.
Table 2 summarizes the % of compound remaining after 45 minutes of incubation with human microsomes either in the presence of co-factors UDPGA and NADPH or UDPGA only.

[3] = Metabolic identification in hepatocytes (dog); format: in vitro ADME
Experimental: (§1) Metabolic Identification in Hepatocytes.
(§2) A 10 mM stock of test compound from Example 4 (sodium 2-(3-((5-cyclopropyl-3-(2-(trifluoromethoxy)phenyl)isoxazol-4-yl)methoxy)-8-azabicyclo[3.2.1]octan-8-yl)-4-fluorobenzo[d]thiazole-6-sulfinate) was prepared in DMSO. 20 μM of final working stock was then prepared by diluting 4 μL of 10 mM stock in 1996 μL of Krebs-Hensleit buffer. 200 μL of hepatocyte cell suspension (2×10^6 cells/mL) was added to TPP 48 well plate and preincubated for 30 min@37° C. in incubator. 200 μL of 20 μM working stock of test compound was added to the cell suspension and incubated in an incubator on vibramax at a shaking speed of 500 rpm. For the 0 min sample, 25 μL of hepatocyte suspension was precipitated with 200 μL of acetonitrile and 25 μL of 20 μM test compound was added. The reaction was stopped at 15, 30, 60, 90, 120 min by precipitating 50 μL of incubation mixture with 200 μL of acetonitrile. The samples were vortexed for 5 min at 1200 rpm and centrifuged at 4000 rpm for 10 min. The supernatant was separated, diluted 2 fold with water and analysed using a HPLC (Shimadzu SIL HTS) and mass spectrometer (5500 Qtrap). Acetonitrile and 0.1% formic acid in Milli-q-water were used as the mobile phase, using a column of either Waters Xbridge C18, 250×3.0 mm, 5.0μ particle size or Phenomnex kinetex 5μ EVO C18 100 A, 50×4.6 mm 5.0μ particle size. […]

[4] = Metabolic identification in hepatocytes (human); format: in vitro ADME
Experimental: as §1
A 10 mM stock of test compound from Example 4 (sodium 2-(3-((5-cyclopropyl-3-(2-(trifluoromethoxy)phenyl)isoxazol-4-yl)methoxy)-8-azabicyclo[3.2.1]octan-8-yl)-4-fluorobenzo[d]thiazole-6-sulfinate) was prepared in DMSO. 20 μM of final working stock was then prepared by diluting 4 μL of 10 mM stock in 1996 μL of Krebs-Hensleit buffer. 200 μL of hepatocyte cell suspension (2×10^6 cells/mL) was added to TPP 48 well plate and preincubated for 30 min@37° C. in incubator. 200 μL of 20 μM working stock of test compound was added to the cell suspension and incubated in an incubator on vibramax at a shaking speed of 500 rpm. For the 0 min sample, 25 μL of hepatocyte suspension was precipitated with 200 μL of acetonitrile and 25 μL of 20 μM test compound was added. The reaction was stopped at 15, 30, 60, 90, 120 min by precipitating 50 μL of incubation mixture with 200 μL of acetonitrile. The samples were vortexed for 5 min at 1200 rpm and centrifuged at 4000 rpm for 10 min. The supernatant was separated, diluted 2 fold with water and analysed using a HPLC (Shimadzu SIL HTS) and mass spectrometer (5500 Qtrap). Acetonitrile and 0.1% formic acid in Milli-q-water were used as the mobile phase, using a column of either Waters Xbridge C18, 250×3.0 mm, 5.0μ particle size or Phenomnex kinetex 5μ EVO C18 100 A, 50×4.6 mm 5.0μ particle size.
Table 3 summarizes the major metabolites observed when the compound of Example 4 of the invention was incubated in human, dog or mouse hepatocytes.

[5] = Metabolic identification in hepatocytes (mouse); format: in vitro ADME
Experimental: as §1, §2

| % remaining @ 45 mins of incubation with UDPGA [2] [%] | % remaining @ 45 mins of incubation with UDPGA and NADPH [2] [%] | SMILES | EC50 [1] [µM] | Efficacy (%) [1] [%] | Acyl-Glucuronide [3] | Observed Major Metabolites [3] | Acyl-Glucuronide [4] | Observed Major Metabolites [4] | major metabolites formed (MS/MS spectra, FIG. 1) ([4]; incubation for 120 mins) | Acyl-Glucuronide [5] | Observed Major Metabolites [5] |
| --- | --- | --- | --- | --- | --- | --- | --- | --- | --- | --- | --- |
| – | – | O=S(O)c1ccc(C2CC2c2ccc(OCc3c(-c4c(Cl)cccc4Cl)noc3C3CC3)cc2Cl)cc1 (stereo not drawn) [Example 8, Sodium 4-(2-(2-chloro-4-((5-cyclopropyl-3-(2,6-dichlorophenyl)isoxazol-4-yl)methoxy)phenyl)cyclopropyl)benzenesulfinate] | 0.5 to 5 | 127 | – | – | – | – | – | – | – |
| 95 | 38 | O=S(O)c1ccc(C2CC(O)(c3ccc(OCc4c(-c5c(Cl)cccc5Cl)noc4C4CC4)cc3Cl)C2)cc1 (stereo not drawn) [Example 7, Sodium 4-(3-(2-chloro-4-((5-cyclopropyl-3-(2,6-dichlorophenyl)isoxazol-4-yl)methoxy)phenyl)-3-hydroxycyclobutyl)benzenesulfinic acid] | > 5 | 89 | – | – | – | – | – | – | – |
| 92 | 26 | O=S([O-])c1cccc(N2CC(O)(c3ccc(OCc4c(-c5c(Cl)cccc5Cl)noc4C4CC4)cc3Cl)C2)c1.[Na+] [Example 6, Sodium 3-(3-(2-chloro-4-((5-cyclopropyl-3-(2,6-dichlorophenyl)isoxazol-4-yl)methoxy)phenyl)-3-hydroxyazetidin-1-yl)benzenesulfinate] | > 5 | 96 | – | – | – | – | – | – | – |

| SMILES | % remaining @ 45 mins of incubation with UDPGA [2] [%] | % remaining @ 45 mins of incubation with UDPGA and NADPH [2] [%] | EC50 [1] [µM] | Efficacy (%) [1] [%] | Acyl-Glucuronide [3] | Observed Major Metabolites [3] | Acyl-Glucuronide [4] | Observed Major Metabolites [4] | major metabolites formed (MS/MS spectra, FIG. 1) ([4]; incubation for 120 mins) | Acyl-Glucuronide [5] | Observed Major Metabolites [5] |
| --- | --- | --- | --- | --- | --- | --- | --- | --- | --- | --- | --- |
| O=S([O-])c1cc(F)c2nc(N3[C@@H]4CC[C@H]3C[C@@H](OCc3c(-c5ccccc5OC(F)(F)F)noc3C3CC3)C4)sc2c1.[Na+] [Example 4, Sodium 2-(3-((5-cyclopropyl-3-(2-(trifluoromethoxy)phenyl)isoxazol-4-yl)methoxy)-8-azabicyclo[3.2.1]octan-8-yl)-4-fluorobenzo[d]thiazole-6-sulfinate] | 94 | 52 | < 0.5 | 94 | No | Alkenyl-hydroxy | No | Hydroxy, Alkenyl and Alkenyl-hydroxy | consistent with oxidative metabolism to give the corresponding hydroxy compound | No | Hydroxy, Di-hydroxy and Alkenyl-hydroxy |
